Assay results from ChEMBL document CHEMBL1155988, “Spiro-naphthyridinone piperidines as inhibitors of S. aureus and E. coli enoyl-ACP reductase (FabI)” (Bioorg Med Chem Lett, 2009).
Values after ≈ are worked out from the molar mass of the structure shown.

Key:
[1] = target: T1, Enoyl-[acyl-carrier-protein] reductase [NADH] FabI (Escherichia coli K-12, UniProt P0AEK4); assay: Inhibition of Escherichia coli FabI assessed as effect on NAD(P)H consumption
T1 sequence (P0AEK4 whole entry): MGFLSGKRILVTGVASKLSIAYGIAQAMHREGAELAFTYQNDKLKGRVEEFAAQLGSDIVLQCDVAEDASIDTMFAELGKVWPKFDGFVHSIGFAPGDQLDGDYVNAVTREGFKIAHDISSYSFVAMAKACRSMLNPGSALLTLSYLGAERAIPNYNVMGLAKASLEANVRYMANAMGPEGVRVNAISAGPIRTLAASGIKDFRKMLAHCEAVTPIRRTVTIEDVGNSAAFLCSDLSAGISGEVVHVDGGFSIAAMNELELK

[2] = Aqueous solubility at pH 7.4; type: physicochemical
Staphylococcus aureus [3] = assay: Antibacterial activity against Staphylococcus aureus 29213 by microdilution method; type: functional
Staphylococcus aureus [4] = assay: Antibacterial activity against methicillin-resistant Staphylococcus aureus 43300 by microdilution method; type: functional
Escherichia coli = assay: Antibacterial activity against Escherichia coli AG100A […] by microdilution method; type: functional
[5] = target: T2, Enoyl-[acyl-carrier-protein] reductase [NADPH] FabI (Staphylococcus aureus, UniProt Q6GI75); assay: Inhibition of Staphylococcus aureus FabI
T2 sequence (Q6GI75 whole entry): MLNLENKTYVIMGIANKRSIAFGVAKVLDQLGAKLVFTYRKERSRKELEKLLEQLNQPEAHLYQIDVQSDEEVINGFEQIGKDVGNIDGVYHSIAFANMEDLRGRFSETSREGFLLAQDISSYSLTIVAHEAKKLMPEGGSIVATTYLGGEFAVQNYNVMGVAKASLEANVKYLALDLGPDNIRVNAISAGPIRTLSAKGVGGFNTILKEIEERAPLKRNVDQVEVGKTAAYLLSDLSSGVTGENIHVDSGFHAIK

[6] = Aqueous solubility at pH 4.0; type: physicochemical

CN(Cc1cc2ccccc2n1C)C(=O)/C=C/c1cnc2c(c1)CCC(=O)N2 showed an IC50 [1] of 139 nM, a solubility [2] of 5.8 µg/mL (≈ 15.5 µM) and an MIC (Staphylococcus aureus [3]) of at most 0.016 µg/mL. For the same compound, the MIC (Staphylococcus aureus [4]) was 0.016 µg/mL (≈ 0.0427 µM) and the MIC (Escherichia coli) was at most 0.063 µg/mL.

CCCOc1c(CN(C)C(=O)/C=C/c2cnc3c(c2)CC2(CCNCC2)C(=O)N3)cccc1OC gave an IC50 [5] of 71 nM, a solubility [6] of 700 µg/mL (≈ 1460 µM) and a solubility [2] of 520 µg/mL (≈ 1090 µM). The MIC (Staphylococcus aureus [3]) was 0.125 µg/mL (≈ 0.261 µM), the MIC (Staphylococcus aureus [4]) was 0.5 µg/mL (≈ 1.04 µM) and the MIC (Escherichia coli) was 2 µg/mL (≈ 4.18 µM).

With Cc1c(CN(C)C(=O)/C=C/c2cnc3c(c2)CN(CCN2CCOCC2)C(=O)N3)sc2ccccc12 the IC50 [5] was 26 nM, the IC50 [1] was 7 nM and the solubility [6] was over 67 µg/mL. For the same compound, the solubility [2] was 6.1 µg/mL (≈ 12.1 µM), the MIC (Staphylococcus aureus [3]) was at most 0.063 µg/mL and the MIC (Staphylococcus aureus [4]) was at most 0.063 µg/mL. The MIC (Escherichia coli) was at most 0.063 µg/mL.

Work on Cc1c(CN(C)C(=O)/C=C/c2cnc3c(c2)CC2(CCNCC2)C(=O)N3)sc2ccccc12 yielded an IC50 [5] of 48 nM, an IC50 [1] of 0.4 nM and a solubility [6] of 22 µg/mL (≈ 47.8 µM). It also gave a solubility [2] of 4.8 µg/mL (≈ 10.4 µM), an MIC (Staphylococcus aureus [3]) of at most 0.016 µg/mL and an MIC (Staphylococcus aureus [4]) of 0.063 µg/mL (≈ 0.137 µM). For the same compound, the MIC (Escherichia coli) was at most 0.063 µg/mL.

Cc1c(CN(C)C(=O)/C=C/c2cnc3c(c2)CCC(=O)N3)sc2ccccc12 gave an IC50 [5] of 30 nM, an MIC (Staphylococcus aureus [3]) of 0.125 µg/mL (≈ 0.319 µM) and an MIC (Staphylococcus aureus [4]) of 0.063 µg/mL (≈ 0.161 µM). For the same compound, the MIC (Escherichia coli) was 4 µg/mL (≈ 10.2 µM).

With Cc1c(CN(C)C(=O)/C=C/c2cnc3c(c2)CC2(CCN(C)CC2)C(=O)N3)sc2ccccc12 the IC50 [5] was 14 nM, the IC50 [1] was 2.4 nM and the solubility [6] was 360 µg/mL (≈ 758 µM). For the same compound, the solubility [2] was 110 µg/mL (≈ 232 µM), the MIC (Staphylococcus aureus [3]) was at most 0.016 µg/mL and the MIC (Staphylococcus aureus [4]) was at most 0.016 µg/mL. For the same compound, the MIC (Escherichia coli) was at most 0.063 µg/mL.

Cc1c(CN(C)C(=O)/C=C/c2cnc3c(c2)CC2(CCN(C)CC2)C(=O)N3)sc2ccc(F)cc12 showed an IC50 [5] of 28 nM, an IC50 [1] of 24 nM and a solubility [6] of 790 µg/mL (≈ 1600 µM). The solubility [2] was 110 µg/mL (≈ 223 µM), the MIC (Staphylococcus aureus [3]) was at most 0.016 µg/mL and the MIC (Staphylococcus aureus [4]) was at most 0.016 µg/mL. It also gave an MIC (Escherichia coli) of at most 0.063 µg/mL.

Work on Cc1c(CN(C)C(=O)/C=C/c2cnc3c(c2)CC2(CCN(C)CC2)C(=O)N3)oc2ccccc12 yielded an IC50 [5] of 20 nM, an IC50 [1] of 1.8 nM and a solubility [6] of 83 µg/mL (≈ 181 µM). It also gave a solubility [2] of 43 µg/mL (≈ 93.8 µM), an MIC (Staphylococcus aureus [3]) of at most 0.016 µg/mL and an MIC (Staphylococcus aureus [4]) of at most 0.016 µg/mL. For the same compound, the MIC (Escherichia coli) was 0.25 µg/mL (≈ 0.545 µM).

CCCOc1c(CN(C)C(=O)/C=C/c2cnc3c(c2)CC2(CCN(C)CC2)C(=O)N3)cccc1OC showed an IC50 [5] of 26 nM, an IC50 [1] of 55 nM and a solubility [6] of 1500 µg/mL (≈ 3040 µM). For the same compound, the solubility [2] was 1000 µg/mL (≈ 2030 µM), the MIC (Staphylococcus aureus [3]) was 0.031 µg/mL (≈ 0.0629 µM) and the MIC (Staphylococcus aureus [4]) was 0.125 µg/mL (≈ 0.254 µM). It also gave an MIC (Escherichia coli) of 4 µg/mL (≈ 8.12 µM).

Work on CN(Cc1cc2ccccc2n1C)C(=O)/C=C/c1cnc2c(c1)CC1(CCNCC1)C(=O)N2 yielded an IC50 [5] of 132 nM, an IC50 [1] of 17 nM and a solubility [6] of over 100 µg/mL. It also gave a solubility [2] of over 100 µg/mL, an MIC (Staphylococcus aureus [3]) of 0.5 µg/mL (≈ 1.13 µM) and an MIC (Staphylococcus aureus [4]) of 2 µg/mL (≈ 4.51 µM). For the same compound, the MIC (Escherichia coli) was 0.5 µg/mL (≈ 1.13 µM).

In the case of Cc1c(CN(C)C(=O)/C=C/c2cnc3c(c2)CC2(CCNCC2)C(=O)N3)oc2ccccc12, the IC50 [5] is reported as 49 nM, the IC50 [1] is reported as 0.7 nM and the solubility [6] is reported as 1500 µg/mL (≈ 3370 µM). It also gave a solubility [2] of 100 µg/mL (≈ 225 µM), an MIC (Staphylococcus aureus [3]) of 0.031 µg/mL (≈ 0.0697 µM) and an MIC (Staphylococcus aureus [4]) of 0.031 µg/mL (≈ 0.0697 µM). It also gave an MIC (Escherichia coli) of at most 0.063 µg/mL.
